“Also recorded” adds a separate entry of the source.
Tested on: late gestating sows
Assay: Calcium, phosphorus and energy balance / apparent total tract digestibility (ATTD) study in late gestating sows fed diets with supplemental 1-α-OH-D3
Format: in vivo, pig
Conditions: for ATTD of Ca / ATTD of Dry Matter / ATTD of P / ATTD of gross energy / Absorbed Ca / Absorbed P / Fecal Ca output / Fecal P output / Fecal excretion / Urine Ca output / Urine P output: 12.5 mg/kg diet; for fecal P output, in words / urine P output, in words: vs no supplement
Description: Thirty six gestating sows were allotted to three blocks of twelve sows using a randomized complete block design. Four diets were fed to the twelve sows in each block. Thus, there were a total of nine replicate sows per diet. Sows were fed experimental diets from day 91 to 105 of gestation and were housed individually in metabolism crates during this period. Metabolism crates were equipped with a feeder, a nipple drinker, and fully slatted T-bar floors. A screen floor and a urine pan were installed below the T-bar floors to allow for collection of feces and urine, respectively. The initial five days of each period in the metabolism crates were considered the adaptation period to the diets followed by four days of fecal collection using the marker to marker procedure (Adeola, O. 2001. Digestion and balance techniques in pigs. In: A. J. Lewis and L. L. Southern, editors, Swine Nutrition. CRC Press, Washington, D.C., USA. p. 903-916.). Fecal collection was initiated when the first marker (i.e., indigo carmine) appeared in the feces and ceased when the second marker (i.e., chromic oxide) appeared (Id.). Urine was collected in buckets placed under the urine pans with 50 mL of 3N HCl from day six in the morning until day ten in the morning. Buckets were emptied daily, the weight of the collected urine was recorded, and 10% of the collected urine was stored at −20° C. until subsampling.
Diets were formulated using a 2×2 factorial arrangement with two levels of calcium and phosphorus (i.e., 100% and 75% of the requirement; NRC, 2012) with a constant calcium to phosphorus ratio (See Table 1) without or with supplemental 1-α-OH-D3 (Alpha D3, Premex Inc., NC). The high level of calcium and phosphorus was 100% requirement for late gestation sows. The low level of calcium phosphorus was 75% of requirement for late gestation sows (NRC. 2012. Nutrient requirements of swine. 11th rev. ed. Natl. Acad. Press, Washington, D.C., USA). The corn-1-α-OH-D3 premix provided 12.5 mg Alpha D3 per kg of complete diet; 1,000 g of 1-α-OH-D3 premix was prepared by mixing 417 mg Alpha D3 and 999.583 g ground corn.
The vitamin-micromineral premix provided the following quantities of vitamins and micro minerals per kilogram of complete diet: vitamin A as retinyl acetate, 10,622 IU; vitamin D3 as cholecalciferol, 1,660 IU; vitamin E as […], 66 IU; vitamin K as menadione nicotinamide bisulfate, 1.40 mg; thiamin as thiamine mononitrate, 1.08 mg; riboflavin, 6.49 mg; pyridoxine as pyridoxine hydrochloride, 0.98 mg; vitamin B12, 0.03 mg; D-pantothenic acid as D-calcium pantothenate, 23.2 mg; niacin, 43.4 mg; folic acid, 1.56 mg; biotin, 0.44 mg; Cu, 20 mg as copper chloride; Fe, 123 mg as iron sulfate; I, 1.24 mg as ethylenediamine dihydriodide; Mn, 59.4 mg as manganese hydroxychloride; Se, 0.27 mg as sodium selenite and selenium yeast; and Zn, 124.7 mg as zinc hydroxychloride.
All vitamins and minerals except calcium and phosphorus were included in all diets to meet or exceed nutrient requirements (NRC, 2012). Daily feed allotments were provided in a meal that was fed at 7 AM throughout the experiment. The daily feed allowance was 1.5 times the maintenance energy requirement for gestating sows based on the initial body weight of sows (i.e., 100 kcal ME/kg BW0.75; NRC. 2012. Nutrient requirements of swine. 11th rev. ed. Natl. Acad. Press, Washington, D.C., USA). Water was available at all times.
At the conclusion of the testing, urine samples were thawed and mixed within animal and collection period and subsamples were collected. Fecal samples were stored at −20° C. as soon as collected, and at the conclusion of the experiment, samples were dried at 65° C. in a forced air oven and finely ground through a 1-mm screen before analysis using a Wiley mill (Model 4; Thomas Scientific, Swedesboro, N.J.). […]

[1] = high level of dietary calcium and phosphorus, P<0.05
[2] = low level of dietary calcium and phosphorus
[3] = supplemented vs no supplemental 1-α-OH-D3, main effect, P<0.01
[4] = supplemented vs no supplemental 1-α-OH-D3, regardless of dietary Ca and P levels, P<0.05

C=C1/C(=C\C=C2/CCC[C@]3(C)[C@@H]([C@H](C)CCCC(C)C)CC[C@@H]23)C[C@@H](O)C[C@@H]1O [1-α-OH-D3, 1-alpha-hydroxycholecalciferol]
ATTD of Ca (High Ca and P levels): 30.25% | ATTD of Dry Matter (High Ca and P levels): 87.72% | ATTD of P (High Ca and P levels): 34.7% | ATTD of gross energy (High Ca and P levels): 87.3% | Absorbed Ca (High Ca and P levels): 6.63 grams/day | Absorbed P (High Ca and P levels): 5.19 grams/day | Fecal Ca output (High Ca and P levels): 15.00 grams/day | Fecal P output (High Ca and P levels): 9.71 grams/day | Fecal excretion (High Ca and P levels): 0.32 kg dry matter/d | Urine Ca output (High Ca and P levels): 0.59 grams/day | Urine P output (High Ca and P levels): 0.99 grams/day | ATTD of Ca (Low Ca and P levels): 30.49% | ATTD of Dry Matter (Low Ca and P levels): 88.31% | ATTD of P (Low Ca and P levels): 29.63% | ATTD of gross energy (Low Ca and P levels): 87.5% | Absorbed Ca (Low Ca and P levels): 4.66 grams/day | Absorbed P (Low Ca and P levels): 3.16 grams/day | Fecal Ca output (Low Ca and P levels): 10.89 grams/day | Fecal P output (Low Ca and P levels): 7.67 grams/day | Fecal excretion (Low Ca and P levels): 0.30 kg dry matter/d | Urine Ca output (Low Ca and P levels): 0.99 grams/day | Urine P output (Low Ca and P levels): 0.12 grams/day | fecal P output, in words [1]: decreased | urine P output, in words [1]: decreased | fecal P output, in words [2]: no difference | urine P output, in words [2]: no difference | ATTD of dry matter, in words (supplemented vs no supplemental 1-α-OH-D3, main effect): greater | fecal excretion, in words (supplemented vs no supplemental 1-α-OH-D3, main effect over both Ca and P levels, P<0.05): less | ATTD of calcium, in words [3]: greater; also recorded: increased | ATTD of gross energy, in words [3]: increases | Fecal calcium output, in words [3]: less | absorbed calcium, in words [3]: greater | calcium retention, in words [3]: greater; also recorded: increased | concentration of digestible energy in diets, in words [3]: increases | urine calcium outputs, in words [3]: increased | ATTD of phosphorus, in words [4]: greater; also recorded: increased | absorbed phosphorus, in words [4]: greater | phosphorus retention, in words [4]: greater; also recorded: increased
